From patent US10053463B2 (Janssen Pharmaceutica NV, priority 2013, dated 2018) come the findings set out here.

For assay [1], the target named is T1, P2X7 (Homo sapiens (Human), UniProt Q99572). The assay is described as follows: Radioligand binding, human P2X7-1321N1 cell membranes, tracer tritiated A-804598. Conditions: Table 3 (additional runs). Here is the method:
P2X7 Antagonism in Recombinant Human P2X7 Cells or Recombinant Rat P2X7 Cells: (a) Ca^2+ Flux and (b) Radioligand Binding
(b) Radioligand Binding: human or rat P2X7-1321N1 cells were collected and frozen @−80° C. On the day of the experiment, cell membrane preparations were made according to standard published methods. The total assay volume was 100 μl:10 μl compound (10×)+(b) 40 μl tracer (2.5×)+50 μl membrane (2×). The tracer used for the assay was tritiated A-804598. The compound can be prepared as described in the literature. (Donnelly-Roberts, D. Neuropharmacology 2008, 56 (1), 223-229.) Compounds, tracer and membranes were incubated for 1 hour @ 4° C. The assay was terminated by filtration (GF/B filters pre-soaked with 0.3% PEI) and washed with washing buffer (Tris-HCl 50 mM). The IC50 generated in the binding assay was corrected for tracer concentration and affinity of the tracer to derive at the affinity (K) of the test compounds. […] Data are analyzed and graphed on Graphpad Prism 5. For analysis, each concentration point is averaged from triplicate values and the averaged values are plotted on Graphpad Prism.

The target in assay [2] is T1, P2X7. The assay is described as follows: P2X7 antagonism in human peripheral blood mononuclear cells (PBMCs), IL-1β release. Conditions: Table 3 (additional runs); for remaining activity at 10 µM: P2X7, 10 μM compound, read-out: PBMC 10 μM (% control). It counts as cell-based. The gist of the method: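 Ficoll-isolated human PBMCs primed with LPS (30 ng/ml) for 1 h, treated with compound for 30 min, then stimulated with 0.5 mM Bz-ATP for 1.5 h. Supernatant IL-1β measured by ELISA as % of LPS+Bz-ATP minus LPS-only release; IC50 from concentration–response of triplicate means.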

T1 sequence (Q99572 whole entry): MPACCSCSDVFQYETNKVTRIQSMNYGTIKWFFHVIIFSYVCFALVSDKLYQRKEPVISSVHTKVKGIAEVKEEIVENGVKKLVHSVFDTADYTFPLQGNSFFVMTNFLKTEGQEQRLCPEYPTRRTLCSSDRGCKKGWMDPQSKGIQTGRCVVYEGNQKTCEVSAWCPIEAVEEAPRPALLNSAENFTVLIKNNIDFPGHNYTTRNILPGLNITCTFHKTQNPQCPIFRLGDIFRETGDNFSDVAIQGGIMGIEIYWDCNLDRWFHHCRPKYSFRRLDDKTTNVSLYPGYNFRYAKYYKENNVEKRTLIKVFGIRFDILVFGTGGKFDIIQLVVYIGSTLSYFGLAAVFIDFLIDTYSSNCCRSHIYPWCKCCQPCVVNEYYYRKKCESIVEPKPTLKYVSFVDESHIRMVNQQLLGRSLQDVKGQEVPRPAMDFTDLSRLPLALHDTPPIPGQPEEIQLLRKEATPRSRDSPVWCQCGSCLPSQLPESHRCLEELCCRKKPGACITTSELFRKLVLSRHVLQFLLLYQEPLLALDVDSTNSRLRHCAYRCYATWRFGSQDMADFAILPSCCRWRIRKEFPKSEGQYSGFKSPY

In the case of `C[C@H]1Cn2c(-c3ccc(F)cn3)nnc2-c2nnc(-c3cccc(Cl)c3Cl)n21` [Example 126, (S)-3-(2,3-dichlorophenyl)-8-(5-fluoropyridin-2-yl)-5-methyl-5,6-dihydrobis([1,2,4]triazolo)[4,3-a:3′,4′-c]pyrazine], the Ki (commonly a measure of affinity in units of concentration, obtained from inhibition or displacement) at P2X7 [1] was determined as 12.6 nM. In addition, on P2X7 [2], the remaining activity at 10 µM was -0.5%.
The matching figures for `Cc1ncsc1-c1nnc2n1C[C@H](C)n1c(-c3cccc(C(F)(F)F)c3Cl)nnc1-2` [Example 109, (5S)-3-[2-Chloro-3-(trifluoromethyl)phenyl]-5-methyl-8-(4-methyl-1,3-thiazol-5-yl)-5,6-dihydrobis[1,2,4]triazolo[4,3-a:3′,4′-c]pyrazine]: 63.1 nM and -1.2%.
The matching figures for `COc1ccnc(-c2nnc3n2C[C@H](C)n2c(-c4cccc(C(F)(F)F)c4Cl)nnc2-3)c1` [Example 113, (5S)-3-[2-Chloro-3-(trifluoromethyl)phenyl]-8-(4-methoxypyridin-2-yl)-5-methyl-5,6-dihydrobis[1,2,4]triazolo[4,3-a:3′,4′-c]pyrazine]: 8.7 nM and 5.8%.
The matching figures for `C[C@H]1Cn2c(-c3cn[nH]c3)nnc2-c2nnc(-c3cccc(C(F)(F)F)c3Cl)n21` [Example 112, (5S)-3-[2-Chloro-3-(trifluoromethyl)phenyl]-5-methyl-8-(1H-pyrazol-4-yl)-5,6-dihydrobis[1,2,4]triazolo[4,3-a:3′,4′-c]pyrazine]: 126 nM and 6.7%.
As for `FC(F)(F)c1cccc(-c2nnc3n2CCn2c(-c4cnccn4)nnc2-3)c1Cl` [Example 132, 3-[2-Chloro-3-(trifluoromethyl)phenyl]-8-pyrazin-2-yl-5,6-dihydrobis[1,2,4]triazolo[4,3-a:3′,4′-c]pyrazine], the Ki on P2X7 [1] was 28.2 nM. Also, the “PBMC 1 μM (% control)” value on P2X7 [2] (1 μM compound) came out at 50.7 % control.
As for `C[C@H]1Cn2c(-c3ccncn3)nnc2-c2nnc(-c3cccc(C(F)(F)F)c3Cl)n21` [Example 111, (5S)-3-[2-Chloro-3-(trifluoromethyl)phenyl]-5-methyl-8-pyrimidin-4-yl-5,6-dihydrobis[1,2,4]triazolo[4,3-a:3′,4′-c]pyrazine], the Ki on P2X7 [1] stood at 10 nM. Besides, at P2X7 [2], the remaining activity at 10 µM is 6.1%.
`COc1ccnc(-c2nnc3n2C[C@H](C)n2c(-c4ccc(Cl)cc4Cl)nnc2-3)c1` [Example 130, (S)-3-(2,4-dichlorophenyl)-8-(4-methoxypyridin-2-yl)-5-methyl-5,6-dihydrobis([1,2,4]triazolo)[4,3-a:3′,4′-c]pyrazine]: the Ki on P2X7 [1] was determined as 6.3 nM. On P2X7 [2], the remaining activity at 10 µM was -0.7%.
The matching figures for `C[C@H]1Cn2c(-c3ncccn3)nnc2-c2nnc(-c3cccc(C(F)(F)F)c3Cl)n21` [Example 105, (5S)-3-[2-Chloro-3-(trifluoromethyl)phenyl]-5-methyl-8-pyrimidin-2-yl-5,6-dihydrobis[1,2,4]triazolo[4,3-a:3′,4′-c]pyrazine]: 4 nM and 0.2%.
The matching figures for `C[C@H]1Cn2c(-c3cc(C(F)(F)F)ccn3)nnc2-c2nnc(-c3cccc(C(F)(F)F)c3Cl)n21` [Example 119, (S)-3-[2-chloro-3-(trifluoromethyl)phenyl]-5-methyl-8-(4-(trifluoromethyl)pyridin-2-yl)-5,6-dihydrobis[1,2,4]triazolo[4,3-a:3′,4′-c]pyrazine]: 14.1 nM and 15%.
For `C[C@H]1Cn2c(-c3cnccn3)nnc2-c2nnc(-c3cccc(C(F)(F)F)c3Cl)n21` [Example 99, (5S)-3-[2-Chloro-3-(trifluoromethyl)phenyl]-5-methyl-8-pyrazin-2-yl-5,6-dihydrobis[1,2,4]triazolo[4,3-a:3′,4′-c]pyrazine] the same measures were 7.9 nM and 34.3%.
